Measured values: US9657351B2, “MRNA-based gene expression for personalizing patient cancer therapy with an MDM2 antagonist” (Hoffmann-La Roche Inc., priority 2013, dated 2017)

What was measured:
Assay in all cases: COMPOUND A In Vitro Assay
Type in all cases: cell-based
[1] = system: NOMO-1; settings: Homo sapiens, Bone marrow, TP53 Mutant
How it was run: (§1)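 An IC50 per line came from high-throughput treatment with RG7112 across a multi-tumour human cancer cell panel.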

[2] = system: A-673; settings: Homo sapiens, A673, Muscle, TP53 Mutant
How it was run: as §1

[3] = system: NCI-H146; settings: Homo sapiens, Lung, TP53 Mutant
How it was run: as §1

[4] = system: COLO-824; settings: Homo sapiens, Breast, TP53 Wild type
How it was run: as §1

[5] = system: NCI-H1568; settings: Homo sapiens, tissue NA, TP53 Mutant
How it was run: as §1

[6] = system: NUGC-3; settings: Homo sapiens, Stomach, TP53 Mutant
How it was run: as §1

[7] = system: CCRF-CEM; settings: Homo sapiens, Lymphocyte T, peripheral blood, TP53 Mutant
How it was run: as §1

[8] = system: HCC38; settings: Homo sapiens, Breast, mammary gland, TP53 Mutant
How it was run: as §1

[9] = system: C32; settings: Homo sapiens, Skin, TP53 Wild type
How it was run: as §1

[10] = system: NCI-H748; settings: Homo sapiens, Lung, TP53 Mutant
How it was run: as §1

[11] = system: 786-O; settings: Homo sapiens, 786-0, Kidney, TP53 Mutant
How it was run: as §1

[12] = system: SR; settings: Homo sapiens, Lymphocyte, TP53 Wild type
How it was run: as §1

[13] = system: PC-10; settings: Homo sapiens, PC10, Lung, TP53 Mutant
How it was run: as §1

[14] = system: T98G; settings: Homo sapiens, Brain, TP53 Mutant
How it was run: as §1

[15] = system: CAMA-1; settings: Homo sapiens, Breast, mammary gland, TP53 Mutant
How it was run: as §1

[16] = system: SK-N-F1; settings: Homo sapiens, Brain, TP53 Mutant
How it was run: as §1

[17] = system: DU-4475; settings: Homo sapiens, Breast, mammary gland, TP53 Wild type
How it was run: as §1

[18] = system: MG-63; settings: Homo sapiens, Bone, TP53 Mutant
How it was run: as §1

[19] = system: MFE-280; settings: Homo sapiens, Uterus, endometrium, TP53 Mutant
How it was run: as §1

[20] = system: NCI-H1993; settings: Homo sapiens, Lung, TP53 Mutant
How it was run: as §1

[21] = system: KMM-1; settings: Homo sapiens, Lymphocyte, TP53 Mutant
How it was run: as §1

[22] = system: HuH-28; settings: Homo sapiens, Gall bladder, TP53 Mutant
How it was run: as §1

[23] = system: NCI-H1781; settings: Homo sapiens, Lung, TP53 Mutant
How it was run: as §1

[24] = system: A-431; settings: Homo sapiens, Skin, epidermis, TP53 Mutant
How it was run: as §1

[25] = system: MFM-223; settings: Homo sapiens, Breast, mammary gland, TP53 Mutant
How it was run: as §1

[26] = system: SNU-1; settings: Homo sapiens
How it was run: as §1

[27] = system: HCC1143; settings: Homo sapiens, Breast, mammary gland, TP53 Mutant
How it was run: as §1

[28] = system: SNU-16; settings: Homo sapiens, Stomach, TP53 Mutant
How it was run: as §1

[29] = system: COLO 320DM; settings: Homo sapiens, Intestine, large, colon, TP53 Mutant
How it was run: as §1

[30] = system: SW948; settings: Homo sapiens, Intestine, large, colon, TP53 Mutant
How it was run: as §1

[31] = system: NCI-H2347; settings: Homo sapiens, Lung, TP53 Wild type
How it was run: as §1

[32] = system: MDA-MB-435S; settings: Homo sapiens, Skin, TP53 Mutant
How it was run: as §1

[33] = system: NCI-H929; settings: Homo sapiens, Lymphocyte B, bone marrow, TP53 Wild type
How it was run: as §1

[34] = system: SK-MES-1; settings: Homo sapiens, Lung, TP53 Mutant
How it was run: as §1

[35] = system: COLO-704; settings: Homo sapiens, Ovary, TP53 Wild type
How it was run: as §1

[36] = system: UM-UC-3; settings: Homo sapiens, UMUC3, Urinary, bladder, TP53 Mutant
How it was run: as §1

[37] = system: HCC1806; settings: Homo sapiens, Breast, mammary gland, TP53 Mutant
How it was run: as §1

[38] = system: NCI-H82; settings: Homo sapiens, Lung, TP53 Wild type
How it was run: as §1

CCOc1cc(C(C)(C)C)ccc1C1=N[C@@](C)(c2ccc(Cl)cc2)[C@@](C)(c2ccc(Cl)cc2)N1C(=O)N1CCN(CCCS(C)(=O)=O)CC1 [COMPOUND A]
IC50 [1]: 6.3 µM
IC50 [2]: 18 µM
IC50 [3]: 8.3 µM
IC50 [4]: 15 µM
IC50 [5]: 9.6 µM
IC50 [6]: 9.8 µM
IC50 [7]: 9.7 µM
IC50 [8]: 12 µM
IC50 [9]: 3 µM
IC50 [10]: 16 µM
IC50 [11]: 9.5 µM
IC50 [12]: 0.043 µM
IC50 [13]: 14 µM
IC50 [14]: 8.3 µM
IC50 [15]: 22 µM
IC50 [16]: 17 µM
IC50 [17]: 2.1 µM
IC50 [18]: 16 µM
IC50 [19]: 23 µM
IC50 [20]: 7.7 µM
IC50 [21]: 19 µM
IC50 [22]: 15 µM
IC50 [23]: 8.8 µM
IC50 [24]: 9.5 µM
IC50 [25]: 17 µM
IC50 ([26]; SNU1, SNU-1, Stomach, TP53 Wild type): 0.37 µM
IC50 ([26]; SNU1, SNU-1 cells): 0.4 µM
IC50 [27]: 12 µM
IC50 [28]: 10 µM
IC50 [29]: 12 µM
IC50 [30]: 19 µM
IC50 [31]: 9 µM
IC50 [32]: 12 µM
IC50 [33]: 0.3 µM
IC50 [34]: 6 µM
IC50 [35]: 20 µM
IC50 [36]: 15 µM
IC50 [37]: 11 µM
IC50 [38]: 4.9 µM
